This passage reports Kd results from patent publication US11319299B2, “Substituted carboxamides as inhibitors of WDR5 protein-protein binding” (PROPELLON THERAPEUTICS INC., priority 2016, dated 2022).

SMILES strings stand for the structures. Some results are limits rather than exact numbers.

The target in one assay is WDR5 (Homo sapiens (Human), UniProt P61964). The experiment in a line: Surface Plasmon Resonance (SPR) assay, KD and residence time. In kind it is binding. The settings on record: surface plasmon resonance (SPR) assay; read-out: WDR5 binding affinity (KD).
Take `CC(=O)Nc1cccc(C(=O)Nc2cc(-c3cnc(N4CCOCC4)nc3)c(F)cc2N2C[C@@H](C)N(C)[C@@H](C)C2)c1` [Example 115, 3-acetamido-N-[4-fluoro-5-(2-morpholin-4-ylpyrimidin-5-yl)-2-[(3R,5S)-3,4,5-trimethylpiperazin-1-yl]phenyl]benzamide]: the dissociation constant Kd was above 200 nM.
Consider `CC1CN(c2cc(F)c(-c3ccc(N4CCN(C)CC4)nc3)cc2NC(=O)c2cn(C)c(=O)cc2C(F)(F)F)CCN1C` (stereo in doubt) [Example 301, N-[4-fluoro-5-[6-(4-methylpiperazin-1-yl)pyridin-3-yl]-2-[(3R)-3,4-dimethylpiperazin-1-yl]phenyl]-1-methyl-6-oxo-4-(trifluoromethyl)pyridine-3-carboxamide], for which the dissociation constant (Kd) was 5.26 nM.
On the same count and under the same terms, then `Cc1cc(C)nc(N2CC=C(c3cc(NC(=O)c4c[nH]c(=O)cc4C(F)(F)F)c(N4C[C@@H](C)N(C)[C@@H](C)C4)cc3F)CC2)n1` [Example 368, N-[5-[1-(4,6-dimethylpyrimidin-2-yl)-3,6-dihydro-2H-pyridin-4-yl]-4-fluoro-2-[(3R,5S)-3,4,5-trimethylpiperazin-1-yl]phenyl]-6-oxo-4-(trifluoromethyl)-1H-pyridine-3-carboxamide], with 2.3 nM; and `C[C@@H]1CN(c2cc(F)c(-c3cnc(N4CCOCC4)nc3)cc2NC(=O)c2ccccc2Cl)C[C@H](C)N1C` [Example 109, 2-chloro-N-[4-fluoro-5-(2-morpholin-4-ylpyrimidin-5-yl)-2-[(3R,5S)-3,4,5-trimethylpiperazin-1-yl]phenyl]benzamide], with 175 nM.
Regarding `C[C@@H]1CN(c2cc(F)c(-c3cnc(N4CCN(C)CC4)nc3)cc2NC(=O)c2ccc(F)cc2C(F)(F)F)C[C@H](C)N1C` [Example 379, 4-fluoro-N-[4-fluoro-5-[2-(4-methylpiperazin-1-yl)pyrimidin-5-yl]-2-[(3R,5S)-3,4,5-trimethylpiperazin-1-yl]phenyl]-2-(trifluoromethyl)benzamide], the Kd worked out at 0.933 nM.
For `C[C@@H]1CN(c2cc(F)c(-c3cnc(N4CCOCC4)nc3)cc2NC(=O)c2cocn2)C[C@H](C)N1C` [Example 127, N-[4-fluoro-5-(2-morpholin-4-ylpyrimidin-5-yl)-2-[(3R,5S)-3,4,5-trimethylpiperazin-1-yl]phenyl]-1,3-oxazole-4-carboxamide], the Kd is above 200 nM.
Same read-out and setting: the figure for `C[C@@H]1CN(c2cc(F)c(-c3ccc(OCC4CC4)nc3)cc2NC(=O)c2ccc(F)cc2Cl)C[C@H](C)N1C` [Example 251, 2-chloro-N-[5-[6-(cyclopropylmethoxy)pyridin-3-yl]-4-fluoro-2-[(3R,5S)-3,4,5-trimethylpiperazin-1-yl]phenyl]-4-fluorobenzamide] is 15.6 nM; for `C[C@@H]1CN(c2cc(F)c(C3=CCCN(c4ncccn4)C3)cc2NC(=O)c2cn(C)c(=O)cc2C(F)(F)F)C[C@H](C)N1C` [Example 391, N-[4-fluoro-5-(1-pyrimidin-2-yl-3,6-dihydro-2H-pyridin-5-yl)-2-[(3R,5S)-3,4,5-trimethylpiperazin-1-yl]phenyl]-1-methyl-6-oxo-4-(trifluoromethyl)pyridine-3-carboxamide] it is 4.27 nM; for `COc1cc(N2CCC=C(c3cc(NC(=O)c4c[nH]c(=O)cc4C(F)(F)F)c(N4C[C@@H](C)N(C)[C@@H](C)C4)cc3F)C2)ncn1` [Example 365, N-[4-fluoro-5-[1-(6-methoxypyrimidin-4-yl)-3,6-dihydro-2H-pyridin-5-yl]-2-[(3R,5S)-3,4,5-trimethylpiperazin-1-yl]phenyl]-6-oxo-4-(trifluoromethyl)-1H-pyridine-3-carboxamide] it is 0.246 nM.
The same measure, in the same setting: the figure for `COc1cc(-c2cc(NC(=O)c3c[nH]c(=O)cc3C(F)(F)F)c(N3C[C@@H](C)N(C)[C@@H](C)C3)cc2F)cc(C)n1` [Example 135, N-[4-fluoro-5-(2-methoxy-6-methylpyridin-4-yl)-2-[(3R,5S)-3,4,5-trimethylpiperazin-1-yl]phenyl]-6-oxo-4-(trifluoromethyl)-1H-pyridine-3-carboxamide] is 2.81 nM; for `CC1CN(c2cc(F)c(-c3cnc(N4CCOCC4)nc3)cc2NC(=O)c2csc(CN(C)C)n2)CCN1C` (stereo in doubt) [Example 182, 2-[(dimethylamino)methyl]-N-[4-fluoro-5-(2-morpholin-4-ylpyrimidin-5-yl)-2-[(3R)-3,4-dimethylpiperazin-1-yl]phenyl]-1,3-thiazole-4-carboxamide] it is above 200 nM; for `C[C@@H]1CN(c2cc(F)c(C3=CC4CCC(C3)N4c3ncccn3)cc2NC(=O)c2c[nH]c(=O)cc2C(F)(F)F)C[C@H](C)N1C` (stereo partly drawn) [Example 336, N-[4-fluoro-5-(8-pyrimidin-2-yl-8-azabicyclo[3.2.1]oct-2-en-3-yl)-2-[(3R,5S)-3,4,5-trimethylpiperazin-1-yl]phenyl]-6-oxo-4-(trifluoromethyl)-1H-pyridine-3-carboxamide] it is 12.5 nM.

The assay is the same for the next values; noted with them: surface plasmon resonance (SPR); read-out: WDR5 binding affinity (KD).
On to `C[C@@H]1CN(c2cc(F)c(-c3cc(F)c(C(=O)N(C)C4CCCCC4)c(F)c3)cc2NC(=O)c2c[nH]c(=O)cc2C(F)(F)F)C[C@H](C)N1C` [Example 760, N-(4′-(cyclohexyl(methyl)carbamoyl)-3′,5′,6-trifluoro-4-((3S,5R)-3,4,5-trimethylpiperazin-1-yl)-[1,1′-biphenyl]-3-yl)-6-oxo-4-(trifluoromethyl)-1,6-dihydropyridine-3-carboxamide], for which the Kd came out at 2 nM.
Consider `C[C@@H]1CN(c2cc(F)c(C3=CCCN(c4ncc(C#N)cn4)C3)cc2NC(=O)c2c[nH]c(=O)cc2C(F)(F)F)C[C@H](C)N1C` [Example 583, N-[5-[1-(5-cyanopyrimidin-2-yl)-3,6-dihydro-2H-pyridin-5-yl]-4-fluoro-2-[(3R,5S)-3,4,5-trimethylpiperazin-1-yl]phenyl]-6-oxo-4-(trifluoromethyl)-1H-pyridine-3-carboxamide], for which the Kd amounted to 0.877 nM.
In the case of `CC1CN(c2cc(F)c(-c3cccc(N4CCOCC4)n3)cc2NC(=O)c2cn(C)c(=O)cc2C(F)F)CCN1C` (stereo in doubt) [Example 672, 4-(difluoromethyl)-N-[4-fluoro-5-(6-morpholin-4-ylpyridin-2-yl)-2-[(3R)-3,4-dimethylpiperazin-1-yl]phenyl]-1-methyl-6-oxopyridine-3-carboxamide], the equilibrium dissociation constant (Kd) was determined as 5.02 nM.
Still for that read-out and setting: the figure for `C[C@@H]1CN(c2nccc(-c3cc(NC(=O)c4ccc(F)cc4C(F)(F)F)c(N4CCN(C)[C@@H](C)C4)cc3F)n2)CCO1` [Example 738, 4-fluoro-N-[4-fluoro-2-[(3S)-3,4-dimethylpiperazin-1-yl]-5-[2-[(2R)-2-methylmorpholin-4-yl]pyrimidin-4-yl]phenyl]-2-(trifluoromethyl)benzamide] is 4 nM.
For the molecule `CC1CN(c2cc(F)c(-c3ccnc(N4CCOCC4)n3)cc2NC(=O)c2ccc(F)cc2C(F)F)CCN1C` (stereo in doubt) [Example 655, 2-(difluoromethyl)-4-fluoro-N-[4-fluoro-5-(2-morpholin-4-ylpyrimidin-4-yl)-2-[(3R)-3,4-dimethylpiperazin-1-yl]phenyl]benzamide], the dissociation constant (Kd) worked out at 1.06 nM.
The same measure, in the same setting: the figure for `C[C@@H]1CN(c2cc(F)c(-c3cnc(NS(C)(=O)=O)nc3)cc2NC(=O)c2c[nH]c(=O)cc2C(F)(F)F)C[C@H](C)N1C` [Example 582, N-[4-fluoro-5-[2-(methanesulfonamido)pyrimidin-5-yl]-2-[(3R,5S)-3,4,5-trimethylpiperazin-1-yl]phenyl]-6-oxo-4-(trifluoromethyl)-1H-pyridine-3-carboxamide] is 5.78 nM; for `C[C@@H]1CN(c2cc(F)c(-c3csc(N4CCOCC4)n3)cc2NC(=O)c2cn(C)c(=O)cc2C(F)F)C[C@H](C)N1C` [Example 622, 4-(difluoromethyl)-N-[4-fluoro-5-(2-morpholin-4-yl-1,3-thiazol-4-yl)-2-[(3R,5S)-3,4,5-trimethylpiperazin-1-yl]phenyl]-1-methyl-6-oxopyridine-3-carboxamide] it is 5.15 nM.
The same measure, in the same setting: the figure for `C[C@@H]1CN(c2cc(F)c(C3=CCN(c4ncc(CN(C)C)cn4)CC3)cc2NC(=O)c2c[nH]c(=O)cc2C(F)(F)F)C[C@H](C)N1C` [Example 405, N-[5-[1-[5-[(dimethylamino)methyl]pyrimidin-2-yl]-3,6-dihydro-2H-pyridin-4-yl]-4-fluoro-2-[(3R,5S)-3,4,5-trimethylpiperazin-1-yl]phenyl]-6-oxo-4-(trifluoromethyl)-1H-pyridine-3-carboxamide] is 0.095 nM.
As for `CC1CN(c2cc(F)c(C3=CCCN(C(=O)OC4CC(F)(F)C4)C3)cc2NC(=O)c2c[nH]c(=O)cc2C(F)F)CCN1C` (stereo in doubt) [Example 705, (3,3-difluorocyclobutyl) 5-[5-[[4-(difluoromethyl)-6-oxo-1H-pyridine-3-carbonyl]amino]-2-fluoro-4-[(3R)-3,4-dimethylpiperazin-1-yl]phenyl]-3,6-dihydro-2H-pyridine-1-carboxylate], the equilibrium dissociation constant (Kd) came out at 2.02 nM.
Consider `CNc1nccc(-c2cc(NC(=O)c3c[nH]c(=O)cc3C(F)(F)F)c(N3C[C@@H](C)N(C)[C@@H](C)C3)cc2F)n1` [Example 538, N-[4-fluoro-5-[2-(methylamino)pyrimidin-4-yl]-2-[(3R,5S)-3,4,5-trimethylpiperazin-1-yl]phenyl]-6-oxo-4-(trifluoromethyl)-1H-pyridine-3-carboxamide], for which the Kd was 3.02 nM.
Turning to `CC1CN(c2cc(F)c(-c3cnc(N4CCOCC4)s3)cc2NC(=O)c2cn(C)c(=O)cc2C(F)F)CCN1C` (stereo in doubt) [Example 621, 4-(difluoromethyl)-N-[4-fluoro-5-(2-morpholin-4-yl-1,3-thiazol-5-yl)-2-[(3R)-3,4-dimethylpiperazin-1-yl]phenyl]-1-methyl-6-oxopyridine-3-carboxamide], the equilibrium dissociation constant (Kd) was determined as 4.84 nM.
In the case of `CC(C)COC(=O)N1CCC=C(c2cc(NC(=O)c3c[nH]c(=O)cc3C(F)(F)F)c(N3C[C@@H](C)N(C)[C@@H](C)C3)cc2F)C1` [Example 408, 2-methylpropyl 5-[2-fluoro-5-[[6-oxo-4-(trifluoromethyl)-1H-pyridine-3-carbonyl]amino]-4-[(3R,5S)-3,4,5-trimethylpiperazin-1-yl]phenyl]-3,6-dihydro-2H-pyridine-1-carboxylate], the Kd stood at 2.75 nM.

A word on the Kd: it is the equilibrium constant for the complex coming apart.
